Experimental data as given in patent publication US10975385B2, “Methods of modulating stomata conductance and plant expression constructs for executing same” (The State of Israel, Ministry of Agriculture & Rural …, priority 2011, dated 2021).

Assays:
[1] = system: stomata (stomatal aperture); experiment: Stomatal aperture of intact leaves immersed in artificial apoplastic sap, measured on epidermal imprints; format: cell-based, tomato (Solanum lycopersicum cv. MP-1); conditions: 3 h
Description: Stomatal aperture and density are determined using the rapid imprinting technique described by […] and Sack (2002). This approach allows to reliably score hundreds of stomata from each experiment, each of which is sampled at the same time. Light-bodied vinylpolysiloxane dental resin (Heraeus-Kulzer, Hanau, Germany) is attached to the abaxial leaf side and then removed as soon as it dries (1 min). The resin epidermal imprints are than covered with nail polish, which removed once it had dried out and serves as a mirror image of the resin imprint. The nail-polish imprints are put on glass cover slips and photographed under bright-field microscope. Stomata images are later analyzed to determine aperture size using the ImageJ software (World Wide Web (dot) rsb (dot) info (dot) nih (dot) gov/ij/) fit-ellipse tool or any other software that can process and analyze images. A microscopic ruler is used for the size calibration. Additional information can be obtained from the software such as stomata width, length, area, perimeter etc. To assess stomatal responses, leaflets are cut and immediately immerse in artificial xylem sap solution (AXS) (Wilkinson and Davies, 1997) containing 100 mM sucrose (Duchefa Biochemie) with or without 20 mM N-acetyl glucosamine (NAG, Sigma-Aldrich), 100 mM or 200 mM glucose (Duchefa Biochemie), 100 mM or 200 mM fructose (Sigma-Aldrich), 100 mM 2-deoxyglucose (Sigma-Aldrich), 10 mM or 100 mM mannose (Sigma-Aldrich), 100 mM sorbitol (Sigma-Aldrich) or 100 mM or 200 mM mannitol (Duchefa Biochemie). The sorbitol and mannitol treatments serve as non-metabolic osmotic controls. Imprints are taken 3 h after immersion and stomatal aperture is analyzed. Different plant species can be used as well as, AXS solutions, treatment solutions and different timings to our decision.

guard cells = experiment: Nitric oxide production in guard cells of epidermal peels (DAF-2DA fluorescence); format: cell-based, tomato; conditions: for NO production and stomatal closure in ABA-deficient mutant: Sitiens epidermal peels, 100 mM Suc or 100 μM ABA; for effect on NO levels in guard cells: 100 mM sorbitol or 20 mM NAG with 100 mM Suc
Description: Detection of nitric oxide (NO) levels in stomata is performed as follows: Epidermal peels are prepared and incubated in MES buffer [25 mM MES-KOH, pH=6.15 and 10 mM KCl (MES, 2-(N-morpholino)-ethane sulfonic acid; Sigma-Aldrich] with or without 20 mM NAG, for 2.5 h under steady light, and then loaded with 60 μM NO indicator dye, DAF-2DA (4, 5-diaminofluorescein diacetate; Sigma-Aldrich), diluted in MES buffer with or without 20 mM N-acetyl glucosamine (NAG, Sigma-Aldrich) and left for an additional 50 min. Then, the peels are washed with MES 3 times and re-incubated for 30 min in the buffer (control, set as 100% fluorescence) or in 100 mM sorbitol, 100 mM sucrose and 20 mM NAG. The peels are then photographed under a microscope (see Materials and Methods, “Confocal microscopy imaging”). Three to four biological repeats containing 20-30 stomata each are included in each experiment and each experiment is repeated several times. Images are analyzed using the ImageJ software histogram tool to evaluate fluorescence intensity and the fit-ellipse tool to determine stomatal aperture. It is possible to use epidermal strips from different species, use different treatments solutions and different timings, all to our decision. Images are acquired using the OLYMPUS IX 81 (Japan) inverted laser scanning confocal microscope (FLUOVIEW 500) equipped with a 488-nm argon ion laser and a 60X1.0 NA PlanApo water immersion objective. Nitric oxide- DAF-2DA (4, 5-diaminofluorescein diacetate; Sigma-Aldrich) fluorescence is excited by 488-nm light and the emission is collected using a BA 505-525 filter. GFP is excited by 488-nm light and the emission is collected using a BA 505-525 filter. A BA 660 IF emission filter is used to observe chlorophyll autofluorescence. Confocal optical sections are obtained at 0.5-μm increments. The images are color-coded green for GFP and magenta for chlorophyll autofluorescence.

O=CC[C@@H](O)[C@H](O)[C@H](O)CO [2-dG, 2-deoxyglucose]
effect on stomatal aperture ([1]; WT leaves, vs mannitol osmotic control): reduced stomatal aperture

CC1=CC(=O)CC(C)(C)[C@@]1(O)/C=C/C(C)=C\C(=O)O [ABA, abscisic acid]
NO production and stomatal closure in ABA-deficient mutant (guard cells; 30 min): did trigger the production of NO

CC(=O)N[C@H]1C(O)O[C@H](CO)[C@@H](O)[C@@H]1O (stereo partly drawn) [NAG, N-acetyl glucosamine]
effect on Suc-induced stomatal closure of AtHXK1-expressing plants ([1]; HK4 leaves, 100 mM Suc with 20 mM NAG): abolished the closing effect of Suc | effect on Suc-induced stomatal closure ([1]; WT leaves, 100 mM Suc with 20 mM NAG): almost completely abolished the effect of Suc and prevented stomatal closure | time to resumption of NO production after washing out NAG (guard cells; NAG washed out with 100 mM Suc): less than 30 min | effect on NO levels in guard cells (guard cells; WT epidermal peels, 30 min): prevented the production of NO

OC[C@H]1O[C@@](CO)(O[C@H]2O[C@H](CO)[C@@H](O)[C@H](O)[C@H]2O)[C@@H](O)[C@@H]1O [Suc, sucrose]
effect on stomatal aperture of AtHXK1-expressing plants ([1]; HK4 leaves, 100 mM Suc): caused the stomata to close even further | decrease of stomatal aperture size relative to sorbitol ([1]; WT tomato leaflets, 100 mM Suc vs 100 mM sorbitol): 29% | effect on guard-cell fluorescence of AtHXK1-expressing line (guard cells; HK4 epidermal peels, Suc added): even more intense fluorescence | NO production and stomatal closure in ABA-deficient mutant (guard cells; 30 min): did not result in any increase in fluorescence or stomatal closure | increase in guard-cell fluorescence (NO levels) (guard cells; WT epidermal peels, 100 mM, 30 min): 3.5 fold

OC[C@@H](O)[C@@H](O)[C@H](O)[C@@H](O)CO [sorbitol]
effect on NO levels in guard cells (guard cells; WT epidermal peels, 30 min): had no effect on NO levels
